≈ marks a conversion by molar mass, not a printed value.
Columns and labels:
Candida albicans KFI = test: Antifungal activity by liquid culture method (turbidity at 550 nm); format: cell-based; settings: liquid medium, 27° C. for 24 hours, read-out: IC50 for growth of the test organism
Procedure: (§1) Samples dissolved in DMSO were added in the 96 well microplate and the solvent was distilled off in vacuo. Suspension, in which Candida albicans KF1 0.3% was inoculated in a medium (glucose 1.0% and yeast extract 0.5%, pH 6.0), 200 μl/well was added and incubated at 27° C. for 24 hours. After the incubation, turbidity was measured by using absorption spectrometer with wavelength at 550 nm. Activity was determined by setting the value without drug addition as 100%, and the concentration shown by 50% turbidity was set as IC50.

Aspergillus niger KF103 = test: as above; format: cell-based; settings: Aspergillus niger KF103, liquid medium, 27° C. for 48 hours; read-out: IC50 for growth of the test organism
Procedure: as §1, with “Aspergillus niger KF103” for “Candida albicans KF1”, “48” for “24”

[1] = tested on: Mucor racemosus KF223 (IFO 4581); test: Antifungal activity by paper disc method; format: cell-based; settings: IFO4581, 10 μg, GY agar medium, 27° C. for 24 hours
Procedure: (§2) Biological properties of K99-5278 substance of the present invention are explained in detail hereinbelow. • (1) Assays of antifungal activities by paper disc method (filter paper disc method)
(§3) Antifungal activities of K99-5278 substance were performed using Aspergillus niger KF103 (ATCC 6275), Mucor racemosus KF223 (IFO 4581), Candida albicans KF1 and Saccharomyces cerevisiae KF26. Aspergillus niger KF103 (ATCC 6275) and Candida albicans KF1 were inoculated at 0.2%, and Mucor racemosus KF223 (IFO 4581) and Saccharomyces cerevisiae KF26 were inoculated at 0.3% in GY agar medium (glucose 1.0%, yeast extract 0.5%, agar 0.8%, pH 6.0). Activities were evaluated by paper disc method (thickness: 6 mm: Advantec Inc., Japan), and a diameter of the inhibition ring was measured after incubating at 27° C. for 24 hours.

[2] = tested on: Saccharomyces cerevisiae KF26; test: Antifungal activity by paper disc method; format: cell-based; settings: 10 μg, GY agar medium, 27° C. for 24 hours
Procedure: as §2, §3

Candida albicans KF1 = test: Antifungal activity by paper disc method; format: cell-based; settings: 10 μg, GY agar medium, 27° C. for 24 hours
Procedure: as §2, §3

[3] = tested on: Aspergillus niger KF103 (ATCC 6275); test: Antifungal activity by paper disc method; format: cell-based; settings: ATCC6275, 10 μg, GY agar medium, 27° C. for 24 hours
Procedure: as §2, §3

Mucor racemosus KF223 = test: Antifungal activity by liquid culture method (turbidity at 550 nm); format: cell-based; settings: Mucor racemosus KF223, liquid medium, 27° C. for 24 hours; read-out: IC50 for growth of the test organism
Procedure: as §1, with “Mucor racemosus KF223” for “Candida albicans KF1”

[4] = tested on: Saccharomyces cerevisiae KF26; test: Antifungal activity by liquid culture method (turbidity at 550 nm); format: cell-based; settings: Saccharomyces cerevisiae KF26, liquid medium, 27° C. for 24 hours; read-out: IC50 for growth of the test organism
Procedure: as §1, with “Antifungal activities of K99-5278A substance, K99-5278B substance and K99-5278C substance by the liquid medium were performed as follows. • 1) Saccharomyces cerevisiae KF26 was used as a test organism. Samples” for “Samples”, “Saccharomyces cerevisiae KF26” for “Candida albicans KF1”

SMILES	IC50 (Candida albicans KFI)	IC50 (Aspergillus niger KF103)	zone of inhibition at 10 µg/disc [1]	zone of inhibition at 10 µg/disc [2]	zone of inhibition at 10 µg/disc (Candida albicans KF1)	zone of inhibition at 10 µg/disc [3]	IC50 (Mucor racemosus KF223)	Solubility in solvent (Solubility in solvent; chloroform)	Solubility in solvent (Solubility in solvent; dimethyl sulfoxide (DMSO))	Solubility in solvent (Solubility in solvent; ethyl acetate)	Solubility in solvent (Solubility in solvent; hexane)	Solubility in solvent (Solubility in solvent; methanol)	Solubility in solvent (Solubility in solvent; water)	IC50 [4]
CC(C)C1OC(=O)C(C)C(O)CC(O)CCCC(O)CC(O)CC(O)C(C)C(O)/C=C/C=C/C=C/C=C/C=C/C1C (stereo not drawn) [K99-5278C substance]	140 µg/mL (≈ 242 µM)	0.75 µg/mL (≈ 1.3 µM)	8 mm	9 mm	8 mm	15 mm	35 µg/mL (≈ 60.5 µM)	slightly soluble	soluble	slightly soluble	insoluble	soluble	insoluble	16.6 µg/mL (≈ 28.7 µM)
CCC1OC(=O)C(C)C(O)CC(O)CCCC(O)CC(O)CC(O)C(C)C(O)/C=C/C=C/C=C/C=C/C=C/C1C (stereo not drawn) [K99-5278B substance]	100 µg/mL (≈ 177 µM)	0.53 µg/mL (≈ 0.938 µM)	9 mm	12 mm	7 mm	16 mm	25 µg/mL (≈ 44.3 µM)	insoluble	soluble	insoluble	insoluble	soluble	insoluble	11.8 µg/mL (≈ 20.9 µM)
CC1/C=C/C=C/C=C/C=C/C=C/C(O)CC(O)CC(O)CC(O)CCCC(O)CC(O)C(C)C(=O)OC1C (stereo not drawn) [K99-5278A substance]	61 µg/mL (≈ 114 µM)	0.32 µg/mL (≈ 0.596 µM)	9 mm	12 mm	9 mm	18 mm	15 µg/mL (≈ 27.9 µM)	slightly soluble	soluble	slightly soluble	insoluble	soluble	insoluble	7.2 µg/mL (≈ 13.4 µM)
